Source: patent US20040214891A1, “Method for inhibiting pathogenic bacteria and fungi growth and microbicidal composition” (priority 2003, published 2004)

Experiments:
[1] = system: bacteria tested; test: bactericidal activity of TauBr compared with TauCl at pH above 7; assay type: cell-based
[2] = system: Staphylococcus epidermidis; test: microbicidal activity of TauBr solution, incubation with bacteria then colony count; assay type: cell-based; conditions: 0.5 h, 30 minutes incubation at room temperature, range tested 1-1000 μM, read-out: inhibitory concentration (MIC)
Experimental: (§1) For research purposes, two bacterial strains commonly found on the human skin were chosen: Propionibacterium acnes (causing acne) and Staphylococcus epidermides (being a part of physiological flora of the skin). Selected microorganisms were lyophilized and kept at room temperature. To prepare strain cultures for immune research the lyophilisate was dissolved in 0.5 ml of 0.9% NaCl solution. The mixture was stirred and seeded on a growth medium. Incubation was conducted in anaerobic conditions at 37° C. for 48-72 hrs. A suspension of bacteria at a concentration of 5×10^9 CFU/ml was then prepared.
(§2) In order to assess the microbicidal activity of the TauBr solution, the Proponibacterium acnes and the Staphylococcus epidermides bacteria were incubated in closed tubes with TauBr solution. The range of concentrations tested was 1-1000 μM. The incubation was conducted at room temperature for 30 minutes. When this process was completed, bacteria were seeded onto a growth medium. After an appropriate period of time the number of developed colonies were counted. Next, estimation of the susceptibility of the Proponibacterium acnes and Staphylococcus epidermides bacteria to the agent tested [TauBr] was determined.

[3] = system: Propionibacterium acnes; test: as above; assay type: cell-based; conditions: Cutibacterium acnes, 0.5 h, 30 minutes incubation at room temperature, range tested 1-1000 μM, read-out: inhibitory concentration (MIC)
Experimental: as §1, §2

[4] = system: bacteria on the skin; test: imprinting method with Rodac plates on dorsal skin of volunteers, solutions on gauze pads; assay type: in vivo, human; conditions: 30 minutes
Text: In order to conduct further tests to ascertain the antibacterial activity of the formulation containing taurine bromamine and prepared by the method described above, the imprinting method was chosen with use of Rodac plates with an area of 25 cm^2. For the purposes of study a Scheadler Agar Base medium produced by the firm Dico, catalogue number 212189, was used with addition of 5% ram blood. The medium was poured steadily onto the Rodac plates in aseptic conditions until a convex meniscus appeared. Before being applied, the medium was kept in enclosed conditions within a fridge at a temperature of ca. +4° C. and was used in a time not exceeding 7 days from the date of its preparation.
Tests for the antibacterial activity of taurine bromamine were conducted by performing 5 imprints of the dorsal skin on time at each of the patients examined. The skin area, on which the tests were to be performed, was determined in advance and marked with the numbers 1-5. […]
At the site marked 1—a gauze pad saturated with 0.9% inj. solution of NaCl (Polfa Lublin), which was a control substance without antibacterial activity was applied to the skin. […] Wherever possible, all the cultivated colonies of relatively aerobic and anaerobic bacteria were counted, to provide a figure for the concentration per cm^2 of the skin. […]

[5] = system: bacteria on the skin; test: imprinting method on skin of volunteers, gel, cream and powder preparations; assay type: in vivo, human; conditions: above 5 mM taurine bromamine; for example Staphylococcus epidermides
Experimental: Further studies of the antibacterial activity of taurine bromamine were conducted using a gel, a cream and a powder. In these tests, applications with a semisolid consistency and plastic features were made, called hereinafter, pharmaceutical or cosmetic preparations or compositions, particularly a taurine bromamine solution in an ethyl-cellulose gel with pH 5-pH 7, a cetomacrogol cream with pH 5-pH 7 and a powder suspension in a taurine bromamine solution.
The powder suspension in taurine bromamine solution was prepared on a base of liquid powder changing the proportions of the components by weight. The suspension consisted of, by weight: 14.0-60.0% of 10 mM Taurine bromamine solution, 10.0-24.0% of talc, 14.0-40.0% of glycerol, 5.0-30.0% of distilled water and 0.5-2.0% of menthol. The constituents of the suspension were stirred thoroughly until an homogenous dispersion of the solid phase was obtained. […]
The preparations were left on the skin area for 30 minutes and then the plates were pressed down so that the site exposed to the activity of the various substances was imprinted centrally on the plate. […] Wherever it was possible, all cultivated colonies of relatively aerobic bacteria and anaerobic bacteria were counted, giving their occurrence per 1 cm^2 of the skin. […]

Row | SMILES | selective bactericidal properties (variable susceptibility of strains) [1] | bactericidal properties ([1]; pH above 7, subcytotoxic concentrations for mammalian cells) | bactericidal activity relative to TauCl ([1]; especially at pH above 7) | bacteria destroyed ([1]; pH above 7) [%] | MIC [2] [µM] | MIC [3] [µM] | bacterial concentration on skin after treatment ([4]; 5 mM solution in buffer pH 7, decrease from uncountable level of ca 10^4 CFU/cm^2) | number of bacteria on the skin area ([4]; 4-7 mM solution in buffer pH 5-pH 7, all patients) | effect on bacterial flora of normal skin [5]
1 | O=S(=O)(O)CCNCl [TauCl, N-chloro taurine, reference compound] | no such selective bactericidal properties | no bactericidal properties | – | – | – | – | – | – | –
2 | O=S(=O)(O)CCNBr [TauBr, N-bromo taurine] | Variable susceptibility of the strains | – | much stronger than TauCl | 99 | > 125 | < 32 | 10^1-10^2 CFU/cm^2 | considerable diminution | all the bacterial flora is destroyed
